For one data set, the system named is HUVEC. Kind of data set: Cytotoxicity assay (monolayer), HUVEC. It counts as cell-based. To be noted: Homo sapiens, read-out: HUVEC (EC50 Ave) ML.
Data set [1] is described as follows: Serum stability in RPMI1640 medium containing 10% fetal bovine serum. It counts as in vitro ADME. On the procedure:
The stability of conjugates was measured in RPMI1640 cell culture medium containing 10% fetal bovine serum. The serum-containing medium was pre-warmed at 37° C. for 3 min prior to addition of test articles. Test articles, prepared in DMSO as 5 mM stocks, were added to the cell culture media to a final concentration of […]. Aliquots ([…]) were withdrawn in triplicate at 0, 4, 8, 24 and 72 hours and combined with the same volume of ice-cold acetonitrile to terminate the reaction. The mixture was centrifuged at 2,000×g for 10 minutes. One part of the supernatant was mixed with four parts of deionized water to bring down the percentage of organic solvent. The diluted samples were then assayed by LC/MS for the test article. The natural log of the percent remaining was plotted versus time. A linear fit was used to determine the rate constant. The fit was truncated after the percent of remaining test article was less than 10%. The elimination half-lives associated with the disappearance of test articles were determined to compare their relative stability. The assays were carried out by Absorption Systems (Exton, Pa.).

Turning to `CC(=O)O[C@H]1C(=O)[C@@]2(C)[C@H]([C@H](OC(=O)c3ccccc3)[C@]3(O)C[C@H](OC(=O)[C@H](O)[C@@H](NC(=O)c4ccccc4)c4ccccc4)C(C)=C1C3(C)C)[C@]1(OC(C)=O)CO[C@@H]1C[C@@H]2O` [Paclitaxel], in the data set with HUVEC, the EC50 – broadly, the concentration that produces a half-maximal response – was < 100 nM. The “Relative Percent Remaining at 0 hr” value in data set [1] (37° C., medium with 10% fetal bovine serum, 0 hr) is 100%. For the same compound, the “Relative Percent Remaining at 4 hr” value in data set [1] (37° C., medium with 10% fetal bovine serum, 4 hr) worked out at 73%. Moreover, in data set [1] (37° C., medium with 10% fetal bovine serum, 8 hr), the “Relative Percent Remaining at 8 hr” value worked out at 59%. For the same compound, the “Relative Percent Remaining at 24 hr” value in data set [1] (37° C., medium with 10% fetal bovine serum, 24 hr) was found to be 28%. In addition, the “Relative Percent Remaining at 72 hr” value in data set [1] (37° C., medium with 10% fetal bovine serum, 72 hr) is reported as <3.0%. Besides, the half-life – broadly, the time in which the quantity being followed falls by half – in data set [1] (bovine) is 11 h.

The record behind these values is patent US20050148534A1, “Small molecule compositions and methods for increasing drug efficiency using compositions thereof” (priority 2003, published 2005).
